Results published in the NIST ThermoML archive (doi:10.1016/j.jct.2017.03.026).

Conditions: 101.33 kPa, Crystal, Small (less than 1 g) adiabatic calorimetry

O.O.O.O.O.O=S(=O)([O-])[O-].[Cu+2] [copper(II) sulfate pentahydrate]
Conditions	molar entropy [J/K/mol]
5 K	1.205
10 K	1.688
15 K	2.669
20 K	4.429
25 K	6.984
30 K	10.25
35 K	14.13
40 K	18.55
45 K	23.35
50 K	28.39
55 K	33.74
60 K	39.25
65 K	44.9
70 K	50.64
75 K	56.43
80 K	62.26
85 K	68.09
90 K	73.92
95 K	79.73
100 K	85.52
110 K	97.04
120 K	108.5
130 K	119.8
140 K	131
150 K	142.1
160 K	153.1
170 K	164
180 K	174.7
190 K	185.4
200 K	196
210 K	206.5
220 K	216.9
230 K	227.2
240 K	237.5
250 K	247.6
260 K	257.7
270 K	267.6
273.15 K	270.7
280 K	277.5
290 K	287.3
298.15 K	295.2
300 K	297
310 K	306.6
320 K	316.1
